This is an account of results in US5641805A, “Topical ophthalmic formulations for treating allergic eye diseases” (Alcon Laboratories, Inc., priority 1995, dated 1997).

The subject of assay [1] is Human Conjunctival Tissue Mast Cells. Briefly: Compound effect on histamine release from human conjunctival tissue mast cells upon anti-human IgE challenge. The assay is classed as cell-based. The conditions noted are these: for inhibition of human conjunctival mast cell degranulation: statement on Table 1; for inhibition at 500 µM: * p < 0.05 Dunnett's, isomers not significantly different (p > 0.05 Studentized Range), read-out: Inhibition (%) of in-vitro histamine release, isomer comparison. On the procedure: The inhibitory effects of reported anti-allergic, mast cell stabilizing drugs on mast cells obtained from human conjunctiva (the target cells for topical ophthalmic drug preparations claimed useful in treating allergic conjunctivitis) were tested according to the following experimental method. Human conjunctival tissues obtained from organ/tissue donors were weighed and transferred to petri dishes containing RPMI 1640 culture medium supplemented with heat inactivated fetal bovine serum (20%, v/v), L-glutamine (2 mM), penicillin (100 units/ml), streptomycin (100 μg/ml), amphotericin B (2.5 μg/ml) and HEPES (10 mM) and equilibrated overnight at 37° C. (5% CO2).
Post equilibration, tissues were placed in Tyrode's buffer (in mM: 137 NaCl, 2.7 KCl, 0.35 Na H2 PO4, 1.8 CaCl2, 0.98 MgCl2, 11.9 Na HCO3, 5.5 glucose) containing 0.1% gelatin (TGCM) and incubated with 200 U each of collagenase (Type IV) and hyaluronidase (Type I-S) per gram of tissue for 30 minutes at 37° C. Following enzyme digestion, tissues were washed with an equal volume of TGCM over Nitex® filter cloth (Tetko, Briarcliff Manor, N.Y.). Intact tissues were placed in TGCM for further enzymatic digestions.
The flitrate obtained from each digestion was centrifuged (825 g, 7 minutes) and pelleted cells were resuspended in calcium/magnesium free Tyrode's buffer (TG). Pooled cells from all digestions were centrifuged (825 g, 30 minutes) over a […] Percoll® cushion. Mast cell enriched cell pellets were resuspended and washed in TG buffer. Viability and number of mast cells were determined by vital dye exclusion and toluidine blue 0 staining of the harvested cell suspensions. Mast cell containing preparations were placed in supplemented RPMI 1640 culture medium and allowed to equilibrate at 37° C. prior to challenge with anti-human IgE (goat derived IgG antibody).
Cell suspensions containing 5000 mast cells were added to TGCM containing tubes and challenged with anti-human IgE. The final volume of each reaction tube was 1.0 mL. Tubes were incubated at 37° C. for 15 minutes post challenge. The release reaction was terminated by centrifugation (500 g, 7 minutes). Supernatants were collected and stored (-20° C.) until mediator analyses.
Initially, supernatants were analyzed for histamine content by both the automated fluorimetric method described by Siraganian, "An Automated Continuous Flow System for the Extraction and Fluorometric Analysis of Histamine," Anal. Biochem., Vol. 57, 383-94 (1974), and a commercially available radioimmunoassay (RIA) system (AMAC, Inc., Westbrook, Me.). Results from these assays were positively correlated (r=0.999): therefore, the remainder of histamine analyses were performed by RIA.
Each experiment included an anti-human IgE (plus vehicle) positive release control, a spontaneous/vehicle release and a total histamine release control. Total histamine release was determined by treatment with Triton X-100® (0.1%). The experiments also included a non-specific goat IgG control. Test compounds are administered to the mast cell cultures either 1 or 15 minutes before stimulation with anti-human IgE. Inhibition of histamine release resulting from challenge of drug treated mast cells was determined by direct comparison with histamine release from vehicle treated, anti-IgE challenged mast cells using Dunnett's t-test (Dunnett, "A multiple comparison procedure for comparing treatments with a control, " J. Amer. Stat Assoc., Vol. 50, 1096-1121 (1955)).
Dunnett's t-test, is a statistical test which compares multiple treatment groups with one control group. In the assay described above, histamine released from drug treated mast cells are compared to histamine released from the anti-human IgE plus vehicle treated mast cells which serve as the positive control. Statistically significant inhibition is determined using this procedure. The probability level of 0.05 is accepted as the level of significance in biomedical research. […]

Assay [2] concerns mast cells obtained from bronchoalveolar lavage fluid. To be noted: 100 μM; cited from earlier work.
In assay [3] the test system is human skin mast cells. To be noted: cited from earlier work.
The subject of assay [4] is rodent mast cell. To be noted: cited from earlier work.
The subject of assay [5] is rat conjunctiva. To be noted: 0.1 % strength.
From the text: This assay indicates whether a topically applied compound effectively prevents or decreases the local allergic response in the conjunctiva. This assay allows an assessment of bioavailability following topical dosing. Briefly, male Sprague Dawley rats (6/group) were passively sensitized by subconjunctival injection of a rat serum containing IgE specific for ovalbumin (OA). Twenty-four hours post sensitization, test compound prepared in saline (0.9% NaCl) or saline vehicle was applied topically onto the sensitized eye. Twenty (20) minutes after dosing, rats were challenged intravenously via the lateral tail vein with 1.0 ml of a solution containing OA (1.0 mg/ml) and Evans Blue dye (2.5 mg/ml). Thirty (30) minutes post antigen challenge, animals were killed, skin was reflected, and the size of the resulting wheal and the intensity of the extravasated dye were determined.
The mark [6] stands for this setting: Homo sapiens, Mast cell, 1 min, treatment 1 min.
Where [7] appears, read: Homo sapiens, Mast cell, 0.25 h, treatment 15 min.
The mark [8] stands for this setting: Homo sapiens, Mast cell, 0.25 h, treatment 15 min, * p < 0.05 Dunnett's t-test.

Regarding `CCCc1c2oc(C(=O)O)cc(=O)c2cc2c(=O)cc(C(=O)O)n(CC)c12` [Nedocromil sodium], in assay [1] (setting [6]), the inhibition (usually the drop in the measured response relative to a control, in per cent) at 0.1 µM was found to be 17.4%; the inhibition at 0.3 µM stood at 8.8%; the inhibition at 1 µM was 4.8%; the inhibition at 3 µM was determined as 0.8%. Besides, in assay [1] (setting [6]), the inhibition at 10 µM was -6.5%, the inhibition at 30 µM was -0.9%, the inhibition at 100 µM amounted to 6.7% and the inhibition at 300 µM worked out at 4%. The inhibition at 1000 µM in assay [1] (setting [6]) is -1.1%. Moreover, in assay [1] (setting [7]), the inhibition at 0.1 µM was determined as 8.7%, the inhibition at 0.3 µM stood at 3.7%, the inhibition at 1 µM stood at 10.7% and the inhibition at 3 µM came out at 13.2%. In addition, in assay [1] (setting [7]), the inhibition at 10 µM came to 9.2% and the inhibition at 30 µM is 15.2%. In assay [1] (setting [8]), the inhibition at 100 µM was 28.2%, the inhibition at 300 µM amounted to 11.3% and the inhibition at 1000 µM was 7.2%. The “inhibition of human conjunctival mast cell degranulation” value in assay [1] is given as “failed to significantly inhibit human conjunctival mast cell degranulation”.
Take `O=C(O)c1cc(=O)c2c(OCC(O)COc3cccc4oc(C(=O)O)cc(=O)c34)cccc2o1` [Cromolyn sodium]: in assay [1] (setting [6]), the inhibition at 10 µM was -0.9%, the inhibition at 30 µM came out at 0.1%, the inhibition at 100 µM worked out at 1.2% and the inhibition at 300 µM was -1.8%. Also, in assay [1] (setting [6]), the inhibition at 1000 µM was -9.4%. Besides, in assay [1] (setting [7]), the inhibition at 10 µM amounted to 10.6% and the inhibition at 30 µM is 1.8%. For the same molecule, in assay [1] (setting [8]), the inhibition at 100 µM is -1.2%, the inhibition at 300 µM was -6.9% and the inhibition at 1000 µM was -15.4%. Moreover, the “inhibition of human conjunctival mast cell degranulation” value in assay [1] is reported as “failed to significantly inhibit human conjunctival mast cell degranulation”. The “inhibition of mast cells from bronchoalveolar lavage fluid” value in assay [2] was “inhibited”. Further, the “inhibition of histamine release from human skin mast cells” value in assay [3] was “not inhibited at all”. For the same molecule, the “inhibition of rodent mast cell degranulation” value in assay [4] was “inhibit rodent mast cell degranulation”.
For `CN(C)CCC=C1c2ccccc2COc2ccc(/C=C\C(=O)O)cc21` [Compound C, (Z)11-(3-Dimethylaminopropylidene)-6,11-dihydrodibenz[b,e]oxepin2-acrylic acid], in assay [5], the “% Change (permeability score)” value is listed as -53%.
Turning to `CN(C)CC/C=C1/c2ccccc2COc2ccc(CC(=O)O)cc21` [Compound A (cis), Z-11-(3-dimethylaminopropylidene)-6,11-dihydrodibenz[b,e]oxepin-2-acetic acid], the inhibition at 500 µM in assay [1] (setting [7]) came to 29.7%. Besides, the “inhibition of human conjunctival mast cell degranulation” value in assay [1] is “concentration-dependent inhibition of mast cell degranulation”.
For `CN(C)CC/C=C1/c2ccccc2COc2ccc(CC(=O)O)cc21` [Compound A, 11-(3-dimethylaminopropylidene)-6,11-dihydrodibenz[b,e]oxepin-2-acetic acid], the inhibition at 30 µM in assay [1] (setting [7]) is -3.9%. In assay [1] (setting [8]), the inhibition at 100 µM was determined as 13%, the inhibition at 300 µM came to 29.6% and the inhibition at 1000 µM was 66.7%. Moreover, the inhibition at 600 µM in assay [1] (Homo sapiens, Mast cell, 0.25 h, 600 μM, treatment 15 min, * p < 0.05 Dunnett's t-test) came out at 47.5%. For the same molecule, in assay [1] (Mast cell, 2000 μM, treatment 15 min before anti-human IgE, * p < 0.05 Dunnett's t-test), the inhibition at 2000 µM worked out at 92.6%.
For the molecule `CN(C)CC/C=C1/c2ccccc2COc2ccc(C(=O)O)cc21` [Compound B, (Z)11-(3-Dimethylaminopropylidene)-6,11-dihydrodibenz[b,e]oxepin2-carboxylic acid], the “% Change (permeability score)” value in assay [5] is on record as -55%.
As to `CN(C)CC/C=C1\c2ccccc2COc2ccc(CC(=O)O)cc21` [Compound A (trans), E-11-(3-dimethylaminopropylidene)-6,11-dihydrodibenz[b,e]oxepin-2-acetic acid], the inhibition at 500 µM in assay [1] (setting [7]) is 26.2%.
